The text below walks through data of ChEMBL document CHEMBL1123223, “New effective gonadotropin releasing hormone antagonists with minimal potency for histamine release in vitro” (J Med Chem, 1986).

For assay [1], the species on record is Rattus norvegicus. Put plainly: Dissociation constant was determined in rat pituitary cells. Type of assay: cell-based. As to conditions: pituitary gland cell.
The target of assay [2] is T1, Gonadotropin-releasing hormone receptor (Rattus norvegicus) (UniProt P30969).
T1 sequence (whole entry): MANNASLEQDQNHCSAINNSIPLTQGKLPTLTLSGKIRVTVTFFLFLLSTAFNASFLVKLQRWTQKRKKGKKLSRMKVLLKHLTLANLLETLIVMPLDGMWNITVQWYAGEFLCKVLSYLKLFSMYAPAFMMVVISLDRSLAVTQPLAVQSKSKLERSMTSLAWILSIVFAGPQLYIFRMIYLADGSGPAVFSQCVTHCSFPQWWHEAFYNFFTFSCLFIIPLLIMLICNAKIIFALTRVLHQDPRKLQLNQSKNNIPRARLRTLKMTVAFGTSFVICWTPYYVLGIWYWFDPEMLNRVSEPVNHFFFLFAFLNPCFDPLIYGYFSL
In words: Inhibition of GnRH-mediated LH secretion by cultured pituitary cells. In kind it is functional, cell-based. As to conditions: Pituitary gland cell.

Assay [3] is filed under the species Rattus norvegicus. Put plainly: Compound was tested in vitro for its ability to inhibit histamine release from rat mast cells. In kind it is functional. As to conditions: read-out: ED50 (the source's name).
Assay [4] is filed under the species Rattus norvegicus. In words: Compound was evaluated for time course of action on LH secretion in the castrated male rat at a time interval of 67 hr at 125 microg. Type of assay: functional.
The species entered for assay [5] is Rattus norvegicus. Put plainly: Compound was evaluated for time course of action on LH secretion in the castrated male rat at a time interval of 0 hr at 125 microg. In kind it is functional.
The species entered for assay [6] is Rattus norvegicus. Put plainly: Compound was evaluated for time course of action on LH secretion in the castrated male rat at a time interval of 73 hr at 125 microg. Type of assay: functional.
For assay [7], the species on record is Rattus norvegicus. Put plainly: Compound was evaluated for time course of action on LH secretion in the castrated male rat at a time interval of 49 hr at 125 microg. In kind it is functional.
For assay [8], the species on record is Rattus norvegicus. Put plainly: GnRH antagonistic dose of compound for 0 rats ovulation out of total 10 using anti-ovulatory assay in experiment 1. Type of assay: functional.
The species entered for assay [9] is Rattus norvegicus. In words: Compound was evaluated for time course of action on LH secretion in the castrated male rat at a time interval of 1 hr at 125 microg. Type of assay: functional.
The species named for assay [10] is Rattus norvegicus. In words: Compound was evaluated for time course of action on LH secretion in the castrated male rat at a time interval of 19 hr at 125 microg. In kind it is functional.
The species entered for assay [11] is Rattus norvegicus. In words: Compound was evaluated for time course of action on LH secretion in the castrated male rat at a time interval of 43 hr at 125 microg. In kind it is functional.
Assay [12] is filed under the species Rattus norvegicus. Put plainly: GnRH antagonistic dose of compound for 8 rats ovulation out of total 16 using anti-ovulatory assay in experiment 1. In kind it is functional.
The species named for assay [13] is Rattus norvegicus. Put plainly: GnRH antagonistic dose of compound for 7 rats ovulation out of total 20 using anti-ovulatory assay. In kind it is functional.
Assay [14] is filed under the species Rattus norvegicus. Put plainly: GnRH antagonistic dose of compound for 11 rats ovulation out of total 15 using anti-ovulatory assay. In kind it is functional.
Assay [15] is filed under the species Rattus norvegicus. Put plainly: GnRH antagonistic dose of compound for 9 rats ovulation out of total 10 using anti-ovulatory assay. In kind it is functional.

Values after ≈ are worked out from the molar mass of the structure shown.

By Kd is commonly meant the concentration at which binding is half-saturated. A high value points to lower affinity.

On to `CC(=O)N[C@H](Cc1ccc2ccccc2c1)C(=O)N[C@H](Cc1ccc(Cl)cc1)C(=O)N[C@H](Cc1cccnc1)C(=O)N[C@@H](CO)C(=O)N[C@@H](CCCN=C(N)N)C(=O)N[C@H](CCC(=O)O)C(=O)N[C@@H](CC(C)C)C(=O)N[C@@H](CCCN=C(N)N)C(=O)N1CCC[C@@H]1C(=O)N[C@H](C)C(=O)O`, for which, in assay [1], the Kd was 160 pM. In [2], the Relative potency was found to be 0.09.
For the compound `COc1ccc(C(=O)CC[C@@H](NC(=O)[C@H](Cc2ccc(O)cc2)NC(=O)[C@H](CO)NC(=O)[C@@H](Cc2cccnc2)NC(=O)[C@@H](Cc2ccc(Cl)cc2)NC(=O)[C@H]2CCCN2C(C)=O)C(=O)N(C)[C@@H](CC(C)C)C(=O)N[C@@H](CCCN=C(N)N)C(=O)N2CCC[C@@H]2C(=O)N[C@H](C)C(=O)O)cc1`, binding in assay [1] was characterised by a dissociation constant (Kd) of 310 pM. For the same compound, the Relative potency in assay [2] was found to be 0.13.
Regarding `CC(=O)N1CCC[C@@H]1C(=O)N[C@H](Cc1ccc(F)cc1)C(=O)N[C@H](Cc1c[nH]c2ccccc12)C(=O)N[C@@H](CO)C(=O)N[C@@H](Cc1ccc(O)cc1)C(=O)N[C@H](Cc1c[nH]c2ccccc12)C(=O)N[C@@H](CC(C)C)C(=O)N[C@@H](CCCN=C(N)N)C(=O)N1CCC[C@H]1C(=O)NCC(=O)O`, in [3], the EC50 came to 39 µg/mL (≈ 28.5 µM).
In the case of `COc1ccc(C(=O)CC[C@@H](NC(=O)[C@H](CCCN=C(N)N)NC(=O)[C@H](CO)NC(=O)[C@@H](Cc2cccnc2)NC(=O)[C@@H](Cc2ccc(Cl)cc2)NC(=O)[C@@H](Cc2ccc3ccccc3c2)NC(C)=O)C(=O)N[C@@H](CC(C)C)C(=O)N[C@@H](CCCN=C(N)N)C(=O)N2CCC[C@H]2C(=O)N[C@H](C)C(=O)O)cc1`, the LH level in [4] turned out to be 3.67 ng/mL; in assay [5], 13.38 ng/mL; in [6] it was 5.06 ng/mL; in assay [7], 2.94 ng/mL; in assay [9] it was 6.31 ng/mL; in assay [10], 3.68 ng/mL. In addition, the LH level in [11] is 3.27 ng/mL. The ED100 was 1.5 µg/kg in assay [8] and 0.5 µg/kg in [12]. In addition, the EC50 in assay [3] came to 1.6 µg/mL (≈ 1.08 µM). The compound also showed a Kd in assay [1] of 670 pM. In assay [2], this compound returned a Relative potency of 1.01.
Regarding `CC(=O)N[C@H](Cc1ccc2ccccc2c1)C(=O)N[C@H](Cc1ccc(Cl)cc1)C(=O)N[C@H](Cc1cccnc1)C(=O)N[C@@H](CO)C(=O)N[C@@H](CCCN=C(N)N)C(=O)N[C@H](Cc1c[nH]c2cc([N+](=O)[O-])ccc12)C(=O)N[C@@H](CC(C)C)C(=O)N[C@@H](CCCN=C(N)N)C(=O)N1CCC[C@H]1C(=O)N[C@H](C)C(=O)O`, in assay [3], the EC50 was 2.7 µg/mL (≈ 1.8 µM). In assay [13], the ED100 stood at 0.5 µg/kg. This compound also displayed a Kd in assay [1] of 630 pM. This compound also returned a Relative potency in assay [2] of 1.16.
With `CC(=O)N[C@H](Cc1ccc2ccccc2c1)C(=O)N[C@H](Cc1ccc(Cl)cc1)C(=O)N[C@H](Cc1cccnc1)C(=O)N[C@@H](CO)C(=O)N[C@@H](CCCN=C(N)N)C(=O)N[C@H](Cc1ccc(O)cc1)C(=O)N[C@@H](CC(C)C)C(=O)N[C@@H](CCCN=C(N)N)C(=O)N1CCC[C@H]1C(=O)N[C@H](C)C(N)=O`, the ED100 in [14] was found to be 0.5 µg/kg. In addition, in [3], the EC50 is 3.7 µg/mL (≈ 2.59 µM).
In assay [15], `CC(=O)N[C@H](Cc1ccc2ccccc2c1)C(=O)N[C@H](Cc1ccc(Cl)cc1)C(=O)N[C@H](Cc1cccnc1)C(=O)N[C@@H](CO)C(=O)N[C@@H](CCCN=C(N)N)C(=O)N[C@H](CCC(=O)O)C(=O)N[C@@H](CC(C)C)C(=O)N[C@@H](CCCN=C(N)N)C(=O)N1CCC[C@H]1C(=O)N[C@H](C)C(=O)O` came in with an ED100 of 10 µg/kg. The EC50 in assay [3] amounted to 17 µg/mL (≈ 12.2 µM).
